According to patent US20070281992A1, “COMBINATION OF GYRASE B INHIBITORS AND PROTEIN SYNTHESIS INHIBITORS AND USES THEREOF” (priority 2006, published 2007):
Where two headings read alike, the source gives them in different places.

Assays:
[1] = system: Enterococcus faecalis (ATCC 29212); details: E. faecalis ATCC 29212; accepted quality control range; cited from earlier work
[2] = system: Enterococcus faecalis (ATCC 29212); assay: MIC assay, quality control strain E. faecalis ATCC 29212; assay type: cell-based; details: ATCC29212, E. faecalis ATCC 29212, repeat runs 22FEB06-09MAR06, combinations at 2.5:1, read-out: Minimal Inhibitory Concentration, quality control
Protocol: (§1) Antibiotics: novobiocin, tetracycline, minocycline, oxacillin, and vancomycin were all purchased from Sigma-Aldrich. Linezolid was obtained from Pfizer, Inc. Novobiocin/tetracycline and novobiocin/minocycline were tested in a 2.5:1 ratio to mimic the serum levels. (Vavra, J. J., 1967, Development of resistance to novobiocin, tetracycline, and novobiocin-tetracycline combinations in Staphylococcus aureus populations, J. Bacteriol 93(3):801). Compounds were tested across a concentration range consisting of 11 two-fold serial dilutions of test agent.
(§2) Stock solutions were prepared in sterile deionized water; novobiocin stock concentration was 1600 μg/mL and all other drugs stock solutions were prepared at 640 μg/mL. The stock solutions were allowed to sit at room temperature for one hour to auto-sterilize prior to use in the test. All compounds were in solution in water. The control agent was vancomycin hydrochloride, Sigma Chemical Lot # 015K0825.
(§3) The test organisms for the assay were 52 MSSA, 52 MRSA, 8 VISA, 7 VISE, and 3 LRSA isolates. Quality control strains included Staphylococcus aureus 0100 (ATCC 29213) and Enterococcus faecalis (ATCC 29212).
(§4) The MIC assay was performed according to published NCCLS guidelines. (National Committee for Clinical Laboratory Standards, Methods for Dilution Antimicrobial Susceptibility Tests for Bacteria that Grow Aerobically; Approved Standard-Sixth Edition, NCCLS Document M7-A6 [ISBN 1-56238-486-4], NCCLS, 940 West Valley Road, Suite 1400, Wayne, Pa. 19087-1898 USA, 2003). The test medium was Mueller Hinton II Broth for all organisms.

[3] = system: Staphylococcus aureus 0100 (ATCC 29213); details: S. aureus ATCC 29213; accepted quality control range; cited from earlier work
[4] = system: Methicillin-Resistant Staphylococcus aureus Isolates; assay: MIC assay (NCCLS broth dilution), MRSA clinical isolates; assay type: cell-based; details: Staphylococcus aureus; for MIC: read-out: Minimal Inhibitory Concentration; for MIC50 / MIC90: 52 MRSA isolates, combinations at 2.5:1, given as NB/partner
Protocol: as §1, §2, §3, §4

[5] = system: Staphylococcus aureus 0100 (ATCC 29213); assay: MIC assay, quality control strain S. aureus ATCC 29213; assay type: cell-based; details: ATCC29213, S. aureus ATCC 29213, repeat runs 22FEB06-09MAR06, combinations at 2.5:1, read-out: Minimal Inhibitory Concentration, quality control
Protocol: as §1, §2, §3, §4

Cc1onc(-c2ccccc2)c1C(=O)N[C@@H]1C(=O)N2[C@@H]1SC(C)(C)[C@@H]2C(=O)O [OX, oxacillin]
CLSI QC Range (MIC) [1]: 8 to 32 µg/mL | MIC [2]: 8 µg/mL | CLSI QC Range (MIC) [3]: 0.12 to 0.5 µg/mL | MIC ([4]; MRSA isolate 757, 24FEB06): 32 µg/mL | MIC ([4]; MRSA isolate 758, 03MAR06): > 32 µg/mL | MIC ([4]; MRSA isolate 758, 24FEB06): > 32 µg/mL | MIC ([4]; MRSA isolate 760, 03MAR06): > 32 µg/mL | MIC ([4]; MRSA isolate 760, 24FEB06): > 32 µg/mL | MIC ([4]; MRSA isolate 763, 22FEB06): 32 µg/mL | MIC ([4]; MRSA isolate 765, 22FEB06): > 32 µg/mL | MIC ([4]; MRSA isolate 766, 22FEB06): > 32 µg/mL | MIC ([4]; MRSA isolate 767, 22FEB06): 16 µg/mL | MIC ([4]; MRSA isolate 768, 22FEB06): 8 µg/mL | MIC ([4]; MRSA isolate 769, 22FEB06): 16 µg/mL | MIC ([4]; MRSA isolate 770, 22FEB06): 16 µg/mL | MIC ([4]; MRSA isolate 771, 22FEB06): > 32 µg/mL | MIC ([4]; MRSA isolate 772, 22FEB06): 32 µg/mL | MIC ([4]; MRSA isolate 773, 24FEB06): 8 µg/mL | MIC ([4]; MRSA isolate 774, 24FEB06): 32 µg/mL | MIC ([4]; MRSA isolate 775, 24FEB06): > 32 µg/mL | MIC ([4]; MRSA isolate 776, 24FEB06): > 32 µg/mL | MIC ([4]; MRSA isolate 777, 24FEB06): 32 µg/mL | MIC ([4]; MRSA isolate 778, 24FEB06): > 32 µg/mL | MIC ([4]; MRSA isolate 886, 24FEB06): 32 µg/mL | MIC ([4]; MRSA isolate 887, 24FEB06): > 32 µg/mL | MIC ([4]; MRSA isolate 888, 24FEB06): > 32 µg/mL | MIC ([4]; MRSA isolate 889, 24FEB06): > 32 µg/mL | MIC ([4]; MRSA isolate 1004, 24FEB06): 8 µg/mL | MIC ([4]; MRSA isolate 1010, 22FEB06): 32 µg/mL | MIC ([4]; MRSA isolate 1012, 22FEB06): > 32 µg/mL | MIC ([4]; MRSA isolate 1013, 22FEB06): 32 µg/mL | MIC ([4]; MRSA isolate 1014, 22FEB06): 32 µg/mL | MIC ([4]; MRSA isolate 1015, 22FEB06): 32 µg/mL | MIC ([4]; MRSA isolate 1016, 22FEB06): 8 µg/mL | MIC ([4]; MRSA isolate 1017, 22FEB06): 16 µg/mL | MIC ([4]; MRSA isolate 1021, 22FEB06): 32 µg/mL | MIC ([4]; MRSA isolate 1022, 22FEB06): 8 µg/mL | MIC ([4]; MRSA isolate 1023, 22FEB06): 4 µg/mL | MIC ([4]; MRSA isolate 1024, 22FEB06): 16 µg/mL | MIC ([4]; MRSA isolate 1025, 22FEB06): 16 µg/mL | MIC ([4]; MRSA isolate 1135, 22FEB06): 32 µg/mL | MIC ([4]; MRSA isolate 1136, 22FEB06): 32 µg/mL | MIC ([4]; MRSA isolate 1137, 22FEB06): > 32 µg/mL | MIC ([4]; MRSA isolate 1138, 22FEB06): 8 µg/mL | MIC ([4]; MRSA isolate 1222, 03MAR06): 32 µg/mL | MIC ([4]; MRSA isolate 1222, 24FEB06): 32 µg/mL | MIC ([4]; MRSA isolate 1653, 03MAR06): > 32 µg/mL | MIC ([4]; MRSA isolate 1658, 03MAR06): 16 µg/mL | MIC ([4]; MRSA isolate 1659, 03MAR06): 16 µg/mL | MIC ([4]; MRSA isolate 1661, 03MAR06): > 32 µg/mL | MIC ([4]; MRSA isolate 1729, 03MAR06): > 32 µg/mL | MIC ([4]; MRSA isolate 1730, 24FEB06): 32 µg/mL | MIC ([4]; MRSA isolate 2009, 24FEB06): > 32 µg/mL | MIC ([4]; MRSA isolate 2010, 24FEB06): 16 µg/mL | MIC ([4]; MRSA isolate 2011, 24FEB06): 32 µg/mL | MIC50 [4]: 32 µg/mL | MIC90 [4]: > 32 µg/mL

CN(C)[C@@H]1C(O)=C(C(N)=O)C(=O)[C@@]2(O)C(O)=C3C(=O)c4c(O)cccc4[C@@](C)(O)[C@H]3C[C@@H]12 [TE, tetracycline]
MIC [2]: 16 µg/mL | MIC [5]: 0.5 µg/mL | MIC ([4]; MRSA isolate 757, 24FEB06): > 16 µg/mL | MIC ([4]; MRSA isolate 758, 03MAR06): 1 µg/mL | MIC ([4]; MRSA isolate 758, 24FEB06): 0.5 µg/mL | MIC ([4]; MRSA isolate 760, 03MAR06): 1 µg/mL | MIC ([4]; MRSA isolate 760, 24FEB06): 0.5 µg/mL | MIC ([4]; MRSA isolate 763, 22FEB06): 0.5 µg/mL | MIC ([4]; MRSA isolate 765, 22FEB06): 0.5 µg/mL | MIC ([4]; MRSA isolate 766, 22FEB06): 1 µg/mL | MIC ([4]; MRSA isolate 767, 22FEB06): 0.5 µg/mL | MIC ([4]; MRSA isolate 768, 22FEB06): 0.5 µg/mL | MIC ([4]; MRSA isolate 769, 22FEB06): > 16 µg/mL | MIC ([4]; MRSA isolate 770, 22FEB06): 0.5 µg/mL | MIC ([4]; MRSA isolate 771, 22FEB06): 0.5 µg/mL | MIC ([4]; MRSA isolate 772, 22FEB06): 0.5 µg/mL | MIC ([4]; MRSA isolate 773, 24FEB06): 0.5 µg/mL | MIC ([4]; MRSA isolate 774, 24FEB06): 0.5 µg/mL | MIC ([4]; MRSA isolate 775, 24FEB06): 0.5 µg/mL | MIC ([4]; MRSA isolate 776, 24FEB06): 0.5 µg/mL | MIC ([4]; MRSA isolate 777, 24FEB06): 0.5 µg/mL | MIC ([4]; MRSA isolate 778, 24FEB06): 0.25 µg/mL | MIC ([4]; MRSA isolate 886, 24FEB06): 0.5 µg/mL | MIC ([4]; MRSA isolate 887, 24FEB06): 0.5 µg/mL | MIC ([4]; MRSA isolate 888, 24FEB06): 0.5 µg/mL | MIC ([4]; MRSA isolate 889, 24FEB06): 1 µg/mL | MIC ([4]; MRSA isolate 1004, 24FEB06): 16 µg/mL | MIC ([4]; MRSA isolate 1010, 22FEB06): 4 µg/mL | MIC ([4]; MRSA isolate 1012, 22FEB06): 1 µg/mL | MIC ([4]; MRSA isolate 1013, 22FEB06): 0.5 µg/mL | MIC ([4]; MRSA isolate 1014, 22FEB06): 0.5 µg/mL | MIC ([4]; MRSA isolate 1015, 22FEB06): 0.5 µg/mL | MIC ([4]; MRSA isolate 1016, 22FEB06): 0.5 µg/mL | MIC ([4]; MRSA isolate 1017, 22FEB06): 0.5 µg/mL | MIC ([4]; MRSA isolate 1021, 22FEB06): 0.5 µg/mL | MIC ([4]; MRSA isolate 1022, 22FEB06): 0.5 µg/mL | MIC ([4]; MRSA isolate 1023, 22FEB06): 0.5 µg/mL | MIC ([4]; MRSA isolate 1024, 22FEB06): 0.5 µg/mL | MIC ([4]; MRSA isolate 1025, 22FEB06): 0.5 µg/mL | MIC ([4]; MRSA isolate 1135, 22FEB06): 0.5 µg/mL | MIC ([4]; MRSA isolate 1136, 22FEB06): 0.5 µg/mL | MIC ([4]; MRSA isolate 1137, 22FEB06): 0.5 µg/mL | MIC ([4]; MRSA isolate 1138, 22FEB06): 1 µg/mL | MIC ([4]; MRSA isolate 1222, 03MAR06): 0.5 µg/mL | MIC ([4]; MRSA isolate 1222, 24FEB06): 0.5 µg/mL | MIC ([4]; MRSA isolate 1653, 03MAR06): 0.25 µg/mL | MIC ([4]; MRSA isolate 1658, 03MAR06): 0.5 µg/mL | MIC ([4]; MRSA isolate 1659, 03MAR06): 0.25 µg/mL | MIC ([4]; MRSA isolate 1661, 03MAR06): 0.5 µg/mL | MIC ([4]; MRSA isolate 1729, 03MAR06): > 16 µg/mL | MIC ([4]; MRSA isolate 1730, 24FEB06): 0.5 µg/mL | MIC ([4]; MRSA isolate 2009, 24FEB06): > 16 µg/mL | MIC ([4]; MRSA isolate 2010, 24FEB06): 0.5 µg/mL | MIC ([4]; MRSA isolate 2011, 24FEB06): > 16 µg/mL | MIC50 [4]: 0.5 µg/mL | MIC90 [4]: 16 µg/mL
